Laboratory results as given in paper PMC6199309, “A therapeutic approach to pantothenate kinase associated neurodegeneration” (Nature Communications, 2018).

Legend:
MARK2 = target: T1, MARK2 (Homo sapiens, UniProt Q7KZI7); test: KINOMEscan; format: binding; details: read-out: %Ctrl @ 10000nM
T1 construct: purchased DiscoverX KINOMEscan

RET(V804L) = target: T2, RET(V804L) (Homo sapiens, UniProt P07949, V804L); test: KINOMEscan; format: binding; details: read-out: %Ctrl @ 10000nM
T2 construct: purchased DiscoverX KINOMEscan

ERK4 = target: T3, ERK4 (Homo sapiens, UniProt P31152); test: KINOMEscan; format: binding; details: read-out: %Ctrl @ 10000nM
T3 construct: purchased DiscoverX KINOMEscan

KIT(L576P) = target: T4, KIT(L576P) (Homo sapiens, UniProt P10721, L576P); test: KINOMEscan; format: binding; details: read-out: %Ctrl @ 10000nM
T4 construct: purchased DiscoverX KINOMEscan

DMPK = target: T5, DMPK (Homo sapiens, UniProt Q09013); test: KINOMEscan; format: binding; details: read-out: %Ctrl @ 10000nM
T5 construct: purchased DiscoverX KINOMEscan

PIP5K2B = target: T6, PIP5K2B (Homo sapiens, UniProt P78356); test: KINOMEscan; format: binding; details: read-out: %Ctrl @ 10000nM
T6 construct: purchased DiscoverX KINOMEscan

FLT3(N841I) = target: T7, FLT3(N841I) (Homo sapiens, UniProt P36888, N841I); test: KINOMEscan; format: binding; details: read-out: %Ctrl @ 10000nM
T7 construct: purchased DiscoverX KINOMEscan

CSNK1E = target: T8, CSNK1E (Homo sapiens, UniProt P49674); test: KINOMEscan; format: binding; details: read-out: %Ctrl @ 10000nM
T8 construct: purchased DiscoverX KINOMEscan

BMPR1A = target: T9, BMPR1A (Homo sapiens, UniProt P36894); test: KINOMEscan; format: binding; details: read-out: %Ctrl @ 10000nM
T9 construct: purchased DiscoverX KINOMEscan

[1] = target: T10, RSK3(Kin.Dom.1-N-terminal) (Homo sapiens, UniProt Q15349); test: KINOMEscan; format: binding; details: read-out: %Ctrl @ 10000nM
T10 construct: RSK3(Kin.Dom.1-N-terminal); purchased DiscoverX KINOMEscan

ULK3 = target: T11, ULK3 (Homo sapiens, UniProt Q6PHR2); test: KINOMEscan; format: binding; details: read-out: %Ctrl @ 10000nM
T11 construct: DNA label for qPCR (T7 phage fusion or DNA tag); purchased DiscoverX scanMAX; host or cells: E. coli BL21-derived (T7 phage) or HEK-293

CDK4-cyclinD3 = target: T12, CDK4-cyclinD3 (Homo sapiens, UniProt P11802); test: KINOMEscan; format: binding; details: read-out: %Ctrl @ 10000nM
T12 construct: purchased DiscoverX KINOMEscan

DLK = target: T13, DLK (Homo sapiens, UniProt Q12852); test: KINOMEscan; format: binding; details: read-out: %Ctrl @ 10000nM
T13 construct: purchased DiscoverX KINOMEscan

CDC2L2 = target: T14, CDC2L2 (Homo sapiens, UniProt Q9UQ88); test: KINOMEscan; format: binding; details: read-out: %Ctrl @ 10000nM
T14 construct: purchased DiscoverX KINOMEscan

TAOK3 = target: T15, TAOK3 (Homo sapiens, UniProt Q9H2K8); test: KINOMEscan; format: binding; details: read-out: %Ctrl @ 10000nM
T15 construct: purchased DiscoverX KINOMEscan

[2] = target: T16, ABL1(F317L)-phosphorylated (Homo sapiens, UniProt P00519, F317L); test: KINOMEscan; format: binding; details: read-out: %Ctrl @ 10000nM
T16 construct: purchased DiscoverX KINOMEscan

SIK = target: T17, SIK (Homo sapiens, UniProt P57059); test: KINOMEscan; format: binding; details: read-out: %Ctrl @ 10000nM
T17 construct: purchased DiscoverX KINOMEscan

TRPM6 = target: T18, TRPM6 (Homo sapiens, UniProt Q9BX84); test: KINOMEscan; format: binding; details: read-out: %Ctrl @ 10000nM
T18 construct: DNA label for qPCR (T7 phage fusion or DNA tag); purchased DiscoverX scanMAX; host or cells: E. coli BL21-derived (T7 phage) or HEK-293

DMPK2 = target: T19, DMPK2 (Homo sapiens, UniProt Q6DT37); test: KINOMEscan; format: binding; details: read-out: %Ctrl @ 10000nM
T19 construct: purchased DiscoverX KINOMEscan

CDK4-cyclinD1 = target: T20, CDK4-cyclinD1 (Homo sapiens, UniProt P11802); test: KINOMEscan; format: binding; details: read-out: %Ctrl @ 10000nM
T20 construct: purchased DiscoverX KINOMEscan

[3] = target: T21, ABL1(M351T)-phosphorylated (Homo sapiens, UniProt P00519, M351T); test: KINOMEscan; format: binding; details: read-out: %Ctrl @ 10000nM
T21 construct: purchased DiscoverX KINOMEscan

CSK = target: T22, CSK (Homo sapiens, UniProt P41240); test: KINOMEscan; format: binding; details: read-out: %Ctrl @ 10000nM
T22 construct: purchased DiscoverX KINOMEscan

ABL1-phosphorylated = target: T23, ABL1-phosphorylated (Homo sapiens, UniProt P00519); test: KINOMEscan; format: binding; details: read-out: %Ctrl @ 10000nM
T23 construct: purchased DiscoverX KINOMEscan

FGFR2 = target: T24, FGFR2 (Homo sapiens, UniProt P21802); test: KINOMEscan; format: binding; details: read-out: %Ctrl @ 10000nM
T24 construct: purchased DiscoverX KINOMEscan

NEK4 = target: T25, NEK4 (Homo sapiens, UniProt P51957); test: KINOMEscan; format: binding; details: read-out: %Ctrl @ 10000nM
T25 construct: purchased DiscoverX KINOMEscan

ALK(C1156Y) = target: T26, ALK(C1156Y) (Homo sapiens, UniProt Q9UM73, C1156Y); test: KINOMEscan; format: binding; details: read-out: %Ctrl @ 10000nM
T26 construct: purchased DiscoverX KINOMEscan

Plasma stability = format: in vitro ADME; details: mouse, read-out: Plasma Stability T1/2
TNK1 = target: T27, TNK1 (Homo sapiens, UniProt Q13470); test: KINOMEscan; format: binding; details: read-out: %Ctrl @ 10000nM
T27 construct: purchased DiscoverX KINOMEscan

[4] = target: T28, TYK2(JH2domain-pseudokinase) (Homo sapiens, UniProt P29597); test: KINOMEscan; format: binding; details: read-out: %Ctrl @ 10000nM
T28 construct: TYK2(JH2domain-pseudokinase); DNA label for qPCR (T7 phage fusion or DNA tag); purchased DiscoverX scanMAX; host or cells: E. coli BL21-derived (T7 phage) or HEK-293

EGFR(L861Q) = target: T29, EGFR(L861Q) (Homo sapiens, UniProt P00533, L861Q); test: KINOMEscan; format: binding; details: read-out: %Ctrl @ 10000nM
T29 construct: purchased DiscoverX KINOMEscan

MST4 = target: T30, MST4 (Homo sapiens, UniProt Q9P289); test: KINOMEscan; format: binding; details: read-out: %Ctrl @ 10000nM
T30 construct: purchased DiscoverX KINOMEscan

[5] = target: T31, JAK3(JH1domain-catalytic) (Homo sapiens, UniProt P52333); test: KINOMEscan; format: binding; details: read-out: %Ctrl @ 10000nM
T31 construct: JAK3(JH1domain-catalytic); purchased DiscoverX KINOMEscan

[6] = target: T32, RPS6KA5(Kin.Dom.1-N-terminal) (Homo sapiens, UniProt O75582); test: KINOMEscan; format: binding; details: read-out: %Ctrl @ 10000nM
T32 construct: RPS6KA5(Kin.Dom.1-N-terminal); purchased DiscoverX KINOMEscan

PAK7 = target: T33, PAK7 (Homo sapiens, UniProt Q9P286); test: KINOMEscan; format: binding; details: read-out: %Ctrl @ 10000nM
T33 construct: purchased DiscoverX KINOMEscan

MAK = target: T34, MAK (Homo sapiens, UniProt P20794); test: KINOMEscan; format: binding; details: read-out: %Ctrl @ 10000nM
T34 construct: purchased DiscoverX KINOMEscan

TNIK = target: T35, TNIK (Homo sapiens, UniProt Q9UKE5); test: KINOMEscan; format: binding; details: read-out: %Ctrl @ 10000nM
T35 construct: purchased DiscoverX KINOMEscan

MST1 = target: T36, MST1 (Homo sapiens, UniProt Q13043); test: KINOMEscan; format: binding; details: read-out: %Ctrl @ 10000nM
T36 construct: purchased DiscoverX KINOMEscan

DCAMKL1 = target: T37, DCAMKL1 (Homo sapiens, UniProt O15075); test: KINOMEscan; format: binding; details: read-out: %Ctrl @ 10000nM
T37 construct: purchased DiscoverX KINOMEscan

HUNK = target: T38, HUNK (Homo sapiens, UniProt P57058); test: KINOMEscan; format: binding; details: read-out: %Ctrl @ 10000nM
T38 construct: purchased DiscoverX KINOMEscan

T17 sequence (P57059 whole entry): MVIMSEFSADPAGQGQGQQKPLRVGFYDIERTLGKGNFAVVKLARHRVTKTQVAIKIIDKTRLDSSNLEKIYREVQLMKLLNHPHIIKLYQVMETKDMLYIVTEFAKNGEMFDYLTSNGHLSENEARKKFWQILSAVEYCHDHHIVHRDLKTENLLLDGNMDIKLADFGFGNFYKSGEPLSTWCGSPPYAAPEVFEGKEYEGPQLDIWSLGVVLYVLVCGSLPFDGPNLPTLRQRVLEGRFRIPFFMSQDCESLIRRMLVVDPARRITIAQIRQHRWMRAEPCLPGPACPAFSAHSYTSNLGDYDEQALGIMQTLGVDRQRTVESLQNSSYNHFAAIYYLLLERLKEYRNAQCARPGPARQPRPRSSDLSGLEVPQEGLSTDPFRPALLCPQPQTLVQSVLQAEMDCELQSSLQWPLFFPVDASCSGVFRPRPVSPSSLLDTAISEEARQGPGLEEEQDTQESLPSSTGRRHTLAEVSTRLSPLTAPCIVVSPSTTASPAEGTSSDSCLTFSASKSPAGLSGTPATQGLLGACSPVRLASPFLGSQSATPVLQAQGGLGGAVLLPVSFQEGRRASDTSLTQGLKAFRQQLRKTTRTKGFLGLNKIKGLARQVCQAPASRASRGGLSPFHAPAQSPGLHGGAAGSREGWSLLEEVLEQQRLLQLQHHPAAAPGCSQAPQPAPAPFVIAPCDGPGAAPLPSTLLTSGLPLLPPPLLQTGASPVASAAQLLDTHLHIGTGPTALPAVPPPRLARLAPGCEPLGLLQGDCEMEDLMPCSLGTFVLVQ
T1 sequence (Q7KZI7 whole entry): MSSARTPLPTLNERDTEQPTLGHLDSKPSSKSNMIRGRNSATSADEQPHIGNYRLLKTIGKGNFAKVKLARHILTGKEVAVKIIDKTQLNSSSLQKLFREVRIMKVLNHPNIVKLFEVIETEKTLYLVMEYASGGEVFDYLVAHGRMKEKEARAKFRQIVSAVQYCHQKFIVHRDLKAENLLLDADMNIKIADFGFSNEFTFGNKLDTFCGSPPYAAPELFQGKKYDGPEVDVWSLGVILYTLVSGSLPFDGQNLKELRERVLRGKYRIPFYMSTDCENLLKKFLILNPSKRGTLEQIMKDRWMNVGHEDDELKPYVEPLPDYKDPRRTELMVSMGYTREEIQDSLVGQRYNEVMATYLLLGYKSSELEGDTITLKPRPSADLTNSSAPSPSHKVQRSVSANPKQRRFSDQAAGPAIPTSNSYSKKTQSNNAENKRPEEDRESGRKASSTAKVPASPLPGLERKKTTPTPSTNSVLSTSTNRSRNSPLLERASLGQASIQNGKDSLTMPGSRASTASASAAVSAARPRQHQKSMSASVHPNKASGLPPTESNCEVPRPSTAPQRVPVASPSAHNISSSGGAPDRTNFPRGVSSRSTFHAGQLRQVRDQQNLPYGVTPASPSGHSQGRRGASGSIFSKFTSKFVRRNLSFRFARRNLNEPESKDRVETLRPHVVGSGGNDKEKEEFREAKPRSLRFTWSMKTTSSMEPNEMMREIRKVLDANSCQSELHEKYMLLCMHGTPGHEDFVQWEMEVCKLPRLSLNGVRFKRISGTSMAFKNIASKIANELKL
T2 sequence (P07949 29-1114 V804L): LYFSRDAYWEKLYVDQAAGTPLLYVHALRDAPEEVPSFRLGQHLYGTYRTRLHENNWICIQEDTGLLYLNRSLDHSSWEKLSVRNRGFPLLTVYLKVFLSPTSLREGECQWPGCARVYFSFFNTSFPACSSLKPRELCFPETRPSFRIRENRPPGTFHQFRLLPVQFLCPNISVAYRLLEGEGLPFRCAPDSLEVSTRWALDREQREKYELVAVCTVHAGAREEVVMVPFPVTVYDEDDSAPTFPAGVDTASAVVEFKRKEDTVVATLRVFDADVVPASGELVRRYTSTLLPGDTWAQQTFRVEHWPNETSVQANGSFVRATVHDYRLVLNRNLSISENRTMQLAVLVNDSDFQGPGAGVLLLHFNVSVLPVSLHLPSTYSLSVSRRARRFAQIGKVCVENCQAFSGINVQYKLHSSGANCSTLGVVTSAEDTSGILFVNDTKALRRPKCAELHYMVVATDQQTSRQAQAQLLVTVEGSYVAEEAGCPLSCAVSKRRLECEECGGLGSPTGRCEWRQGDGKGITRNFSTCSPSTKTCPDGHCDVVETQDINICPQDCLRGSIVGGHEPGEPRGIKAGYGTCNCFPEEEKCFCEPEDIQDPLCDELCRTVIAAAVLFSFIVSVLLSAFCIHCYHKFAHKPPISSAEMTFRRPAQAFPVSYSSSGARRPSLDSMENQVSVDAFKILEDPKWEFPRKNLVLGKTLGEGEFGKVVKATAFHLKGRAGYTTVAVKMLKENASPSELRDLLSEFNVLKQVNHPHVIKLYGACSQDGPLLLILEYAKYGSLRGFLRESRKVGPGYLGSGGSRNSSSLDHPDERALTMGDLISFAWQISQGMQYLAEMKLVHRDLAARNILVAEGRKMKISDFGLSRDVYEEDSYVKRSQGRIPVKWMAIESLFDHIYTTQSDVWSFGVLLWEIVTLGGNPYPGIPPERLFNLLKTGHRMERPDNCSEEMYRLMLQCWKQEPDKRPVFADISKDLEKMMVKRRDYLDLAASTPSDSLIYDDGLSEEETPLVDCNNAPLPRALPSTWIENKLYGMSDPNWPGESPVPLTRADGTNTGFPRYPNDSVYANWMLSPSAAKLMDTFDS
T8 sequence (P49674 whole entry): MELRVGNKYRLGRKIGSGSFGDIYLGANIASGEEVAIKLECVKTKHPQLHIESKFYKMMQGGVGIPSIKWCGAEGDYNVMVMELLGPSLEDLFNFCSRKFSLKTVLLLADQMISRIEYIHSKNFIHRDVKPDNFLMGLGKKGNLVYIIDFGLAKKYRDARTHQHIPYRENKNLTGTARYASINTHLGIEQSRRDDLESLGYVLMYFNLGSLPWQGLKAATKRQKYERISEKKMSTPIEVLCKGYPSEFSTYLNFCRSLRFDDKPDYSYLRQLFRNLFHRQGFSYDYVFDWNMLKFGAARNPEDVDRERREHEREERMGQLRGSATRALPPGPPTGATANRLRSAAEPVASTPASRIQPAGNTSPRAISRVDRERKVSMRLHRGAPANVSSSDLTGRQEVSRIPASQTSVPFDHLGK
T6 sequence (P78356 whole entry): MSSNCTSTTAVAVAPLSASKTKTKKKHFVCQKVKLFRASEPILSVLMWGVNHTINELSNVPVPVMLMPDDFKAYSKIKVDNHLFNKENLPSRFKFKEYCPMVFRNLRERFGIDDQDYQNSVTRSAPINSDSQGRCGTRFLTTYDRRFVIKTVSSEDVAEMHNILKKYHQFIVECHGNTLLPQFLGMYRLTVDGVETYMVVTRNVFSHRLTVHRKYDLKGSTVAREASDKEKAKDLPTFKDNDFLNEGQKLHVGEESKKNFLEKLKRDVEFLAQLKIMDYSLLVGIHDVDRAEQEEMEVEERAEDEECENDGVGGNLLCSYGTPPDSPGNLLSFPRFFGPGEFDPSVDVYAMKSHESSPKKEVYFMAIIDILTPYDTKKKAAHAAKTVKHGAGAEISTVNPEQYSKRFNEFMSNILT
T28 sequence (P29597 589-875 limits assumed): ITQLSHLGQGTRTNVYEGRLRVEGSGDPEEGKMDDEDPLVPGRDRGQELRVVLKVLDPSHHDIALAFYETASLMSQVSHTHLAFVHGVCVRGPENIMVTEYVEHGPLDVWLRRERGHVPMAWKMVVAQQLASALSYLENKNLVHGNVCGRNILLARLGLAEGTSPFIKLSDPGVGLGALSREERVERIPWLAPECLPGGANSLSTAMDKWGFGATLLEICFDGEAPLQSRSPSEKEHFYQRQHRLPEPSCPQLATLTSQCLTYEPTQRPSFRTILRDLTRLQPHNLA
T31 sequence (P52333 814-1124 limits assumed): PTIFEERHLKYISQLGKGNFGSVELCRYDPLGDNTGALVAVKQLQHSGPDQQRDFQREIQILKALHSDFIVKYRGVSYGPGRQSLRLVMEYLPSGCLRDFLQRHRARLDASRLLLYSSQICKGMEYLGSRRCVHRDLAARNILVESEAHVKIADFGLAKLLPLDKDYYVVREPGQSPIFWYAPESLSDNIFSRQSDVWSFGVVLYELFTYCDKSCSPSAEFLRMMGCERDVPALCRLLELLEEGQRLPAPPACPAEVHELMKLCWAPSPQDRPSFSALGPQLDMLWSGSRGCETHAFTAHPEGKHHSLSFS
T11 sequence (Q6PHR2 whole entry, the tested form may be a part): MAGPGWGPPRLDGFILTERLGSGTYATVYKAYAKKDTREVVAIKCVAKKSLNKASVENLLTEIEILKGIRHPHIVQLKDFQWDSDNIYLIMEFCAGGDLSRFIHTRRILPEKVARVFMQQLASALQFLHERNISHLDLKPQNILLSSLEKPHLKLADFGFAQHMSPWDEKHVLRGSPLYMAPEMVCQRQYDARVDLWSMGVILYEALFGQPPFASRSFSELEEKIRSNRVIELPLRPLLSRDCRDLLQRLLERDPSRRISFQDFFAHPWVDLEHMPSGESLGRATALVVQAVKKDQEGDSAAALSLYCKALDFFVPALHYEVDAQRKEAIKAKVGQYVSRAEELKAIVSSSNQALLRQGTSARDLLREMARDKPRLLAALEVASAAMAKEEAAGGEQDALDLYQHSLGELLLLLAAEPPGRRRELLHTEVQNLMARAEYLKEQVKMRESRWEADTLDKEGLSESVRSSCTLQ
T32 sequence (O75582 1-387 limits assumed): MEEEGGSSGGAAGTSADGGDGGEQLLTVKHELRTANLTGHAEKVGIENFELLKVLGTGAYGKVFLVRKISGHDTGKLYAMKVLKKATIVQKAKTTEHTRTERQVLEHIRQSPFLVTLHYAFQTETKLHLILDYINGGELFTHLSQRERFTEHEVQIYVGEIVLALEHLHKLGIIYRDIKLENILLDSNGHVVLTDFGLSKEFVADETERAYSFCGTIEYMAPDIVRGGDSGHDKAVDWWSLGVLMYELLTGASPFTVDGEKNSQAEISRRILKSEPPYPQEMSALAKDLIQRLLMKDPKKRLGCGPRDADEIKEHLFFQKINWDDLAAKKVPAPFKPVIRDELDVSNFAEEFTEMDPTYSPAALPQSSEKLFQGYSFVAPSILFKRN

Structure (SMILES): CC(C)c1ccc(CC(=O)N2CCN(c3ccc(C#N)nn3)CC2)cc1 [PZ-2891, 6-(4-(2-(4-isopropylphenyl)acetyl)piperazin-1-yl)pyridazine-3-carbonitrile]
- remaining binding at 10 µM (MARK2): 70%
- remaining binding at 10 µM (RET(V804L)): 96%
- remaining binding at 10 µM (ERK4): 97%
- remaining binding at 10 µM (KIT(L576P)): 88%
- remaining binding at 10 µM (DMPK): 89%
- remaining binding at 10 µM (PIP5K2B): 88%
- remaining binding at 10 µM (FLT3(N841I)): 86%
- remaining binding at 10 µM (CSNK1E): 97%
- remaining binding at 10 µM (BMPR1A): 100%
- remaining binding at 10 µM [1]: 72%
- remaining binding at 10 µM (ULK3): 89%
- remaining binding at 10 µM (CDK4-cyclinD3): 71%
- remaining binding at 10 µM (DLK): 100%
- remaining binding at 10 µM (CDC2L2): 87%
- remaining binding at 10 µM (TAOK3): 95%
- remaining binding at 10 µM [2]: 100%
- remaining binding at 10 µM (SIK): 83%
- remaining binding at 10 µM (TRPM6): 98%
- remaining binding at 10 µM (DMPK2): 93%
- remaining binding at 10 µM (CDK4-cyclinD1): 100%
- remaining binding at 10 µM [3]: 96%
- remaining binding at 10 µM (CSK): 97%
- remaining binding at 10 µM (ABL1-phosphorylated): 78%
- remaining binding at 10 µM (FGFR2): 100%
- remaining binding at 10 µM (NEK4): 95%
- remaining binding at 10 µM (ALK(C1156Y)): 74%
- half-life (Plasma stability): > 50 h
- remaining binding at 10 µM (TNK1): 100%
- remaining binding at 10 µM [4]: 100%
- remaining binding at 10 µM (EGFR(L861Q)): 100%
- remaining binding at 10 µM (MST4): 91%
- remaining binding at 10 µM [5]: 94%
- remaining binding at 10 µM [6]: 93%
- remaining binding at 10 µM (PAK7): 73%
- remaining binding at 10 µM (MAK): 69%
- remaining binding at 10 µM (TNIK): 91%
- remaining binding at 10 µM (MST1): 86%
- remaining binding at 10 µM (DCAMKL1): 80%
- remaining binding at 10 µM (HUNK): 100%
